The values below come from patent publication US20050142254A1 (priority 2003, published 2005).

Where two headings read alike, the source gives them in different places.

Series [1] deals with umu gene. Format: cell-based. On the procedure:
Mutagenecity test was performed with the AFB1 degradation reaction mixture after hemin treatment. In the test, a conventional mutagenicity test kit “Umlac” (Nippon Antibody Laboratory) was used. Umlac is a kit for short-period mutagenicity test, umu-test, which was developed by Shinagawa (Research Institute for Microbial Diseases, Osaka University), et al. The test is to measure the expression level of umu gene using β-galactosidase activity as an index. The umu gene is considered to be a kind of SOS gene whose expression is induced by DNA-damaging chemicals, and known to be directly concerned with mutation. It has been confirmed that test result of “Umlac” well correlates with those of the Ames test and the carcinogenicity test that are currently used for typical mutagenicity test.
(§1) AFB1 degradation was performed at 50° C. for 6 hours in the presence or absence of hemin with the same reaction mixture as used in Example 1. After the reaction, the reaction mixture was subjected to the mutagenicity test with Umlac. Ten percent of DMSO aqueous solution was prepared as a control without AFB1, and then subjected to the same mutagenicity test.
Higher umu gene expression represents higher mutagenicity. The control value represents no mutagenicity.

Series [2] is classed as biochemical. On the procedure:
[…]. Here, 25 μL of 400 μM hemin suspension was added to it and incubated at 30° C. for 30 minutes. The final concentration of each component was: AFB1, 16 μM; hydrogen peroxide, 500 μM; Tween 80, 1%; hemin, 100 μM.
After the reaction, HPLC and TLC analyses were performed to confirm the degradation of AFB1 and the formation of reaction product. The equal amount of ethyl acetate was added to the reaction mixture, and extraction was done by mixing with a Voltex mixer for 1 minute. The resulting mixture was centrifuged at 10,000×g for 2 minutes, and the ethyl acetate layer (upper layer) was recovered in a new 0.5-mL microtube.
The extract was used for HPLC analysis in succession. The separation column used was a silica column, Shim-pack CLC-SIL (0.46×15 cm). […].
AFB1 degradation was performed at 30° C. for 30 minutes in the same manner as in Example 1 except that the amount of hemin added was varied.
After the reaction, the amount of remaining AFB1 and that of AFQ1 formed were measured quantitatively by HPLC.
AFB1 degradation was performed at 30° C. for 30 minutes in the same manner as in Example 1 except that the amount of hydrogen peroxide added was varied.
After the reaction, amount of the remaining AFB1 and that of AFQ1 formed were measured quantitatively by HPLC.
as §1

Series [3] is classed as physicochemical. The text has this: (§2) We also confirmed that AFQ1 degradation is accelerated by heat, and it occurs non-enzymatically. Horseradish peroxidase (HRP) has a strong AFB1-degrading activity as well as hemin.
Series [4] is classed as biochemical.
Source text: as §2
This is another data set of the same source.

The format of series [5] is biochemical. Conditions: pH 7.5.
Series [6] in a line: Aniline degradation with hemin, HPLC. The format is biochemical. Conditions: 10 μM hemin, 50 μM aniline, 500 μM hydrogen peroxide, 30° C., reaction for 3 hours. On the procedure: […]. Under this condition, the reaction mixture was uniform, thus no detergent was added to it.
After the reaction, equal amount of ethyl acetate was added to the reaction mixture, and extraction was done by mixing with a Voltex mixer for 1 minute, and then centrifuged at 10,000×g for 2 minutes. The resulting aniline-containing ethyl acetate layer (upper layer) was recovered in a new 0.5-mL microtube.
The ethyl acetate extract was directly subjected to HPLC analysis to determine the amount of remaining aniline. The column used was STRODS-II (0.46×15 cm). For mobile phase, 10% acetonitrile aqueous solution was used at the flow rate of 0.5 mL/min. With a UV-visible spectrophotometric detector (Shimadzu SPD-6AV), the absorbance at wave length of 280 nm was monitored for aniline detection.

Series [7] in a line: Bisphenol A (BPA) degradation with hemin, HPLC. The format is biochemical. To be noted: 100 μM hemin, 400 μM BPA, 500 μM hydrogen peroxide, 30° C., reaction for 6 hours. Here is the method: […]. hydrogen peroxide, 500 μM; Tween 80, 1%; hemin, 100 μM.
BPA degradation was confirmed by HPLC. After the reaction, a portion (100 μL) of the reaction mixture was taken, added to the equal amount of ethyl acetate, and extracted for 1 minute by mixing with a Voltex mixer. The mixture was centrifuged at 10,000×g for 2 minutes, and the ethyl acetate layer (upper layer) was recovered in a new 0.5-mL microtube.
HPLC analysis was conducted using the extract. The column used was STR ODS-II (0.46×15 cm). For the mobile phase for BPA quantification, 50% acetonitrile aqueous solution containing 0.1% trifluoroacetic acid was used at the flow rate of 0.7 mL/min. A UV-visible spectrophotometric detector (Shimadzu SPD-6AV) was used at the absorbance wave length of 277 nm for BPA detection.
For the mobile phase for the detection of BPA degradation product, 30% acetonitrile aqueous solution containing 0.1% trifluoroacetic acid was used at the flow rate of 0.5 mL/min. The absorbance at wave length of 280 nm was monitored for this detection.

For `COc1cc2c(c3oc(=O)c4c(c13)CCC4=O)C1C=COC1O2` (stereo not shown) [AFB1, aflatoxin B1], in series [1], the “umu Gene Expression (OD620)” value is 1.185. Further, the “remaining AFB1” value in series [2] was 12 µM.
As to `COc1cc2c(c3oc(=O)c4c(c13)C(O)CC4=O)C1C=COC1O2` (stereo not shown) [AFQ1, aflatoxin Q1], the “AFQ1 degradation, effect of temperature” value in series [3] was “degraded much rapidly at 50 °C than 30 °C”.
On to HRP: Horseradish peroxidase, for which the “AFQ1-degradation rate, presence vs absence of HRP” value in series [3] (1 μM AFQ1 in phosphate buffer, 30° C. or 50° C.) was “no significant difference”. Also, in series [4], the AFB1-degrading activity result was “strong”.
In the case of hemin, the “aflatoxin M1 disappeared” value in series [5] stood at 36%. Besides, the “aniline relative to that initially added” value in series [6] was found to be 45%. Further, in series [1] (reaction mixture with AFB1 and hemin, treatment at 50° C. for 6 hours), the “umu Gene Expression (OD620)” value is given as 0.523. Also, the “amount of BPA relative to that initially added” value in series [7] is 18%. Moreover, in series [2] (200 μM hemin, 16 μM AFB1, 30° C. for 30 minutes), the AFB1 degraded result was “approximately 25%”. Moreover, the “change in AFB1-degradation efficiency depending on hydrogen peroxide concentration” value in series [2] (hemin, hydrogen peroxide 1.0 mM to 10 mM, 30° C. for 30 minutes) is on record as “no significant increase”. The “remaining AFB1” value in series [2] (reaction mixture with hemin, 16 μM AFB1, 50° C. for 6 hours) is no more than 0.16 µM. The AFB1 added degraded entry in series [2] (reaction mixture with hemin, 50° C. for 6 hours) is recorded as “more than 99%”.
